# According to US7244738B2, “Arylamine-substituted quinazolinone compounds useful as alpha 1A/B adrenergic receptor antagonists” (Roche Palo Alto LLC, priority 2003, dated 2007):
# Where a name gives a salt, the structure may show the parent alone.
row,SMILES,melting point [°C]
1,"COCCNCc1ccc(CN(C)c2nc(=O)c3c(C)c(OC)c(OC)cc3[nH]2)cc1 (as salt: HCl) [Example 36, 6,7-Dimethoxy-2-({4-[(2-methoxy-ethylamino)-methyl]-benzyl}-methyl-amino)-5-methyl-1H-quinazolin-4-one]",265 to 268
2,"CNC(=O)c1cccc(CN(C)c2nc(=O)c3c(OC)c(OC)c(OC)cc3[nH]2)c1 [Example 137, N-Methyl-3-{[methyl-(5,6,7-trimethoxy-4-oxo-1,4-dihydro-quinazolin-2-yl)-amino]-methyl}-benzamide]",217.9 to 219.1
3,"COc1cc2[nH]c(N(C)Cc3cccc(NC4=NCCN4)c3)nc(=O)c2cc1OC [Example 89, 2-{[3-(4,5-Dihydro-1H-imidazol-2-ylamino)-benzyl]-methyl-amino}-6,7-dimethoxy-1H-quinazolin-4-one]",163.8 to 176.9
4,"COc1cc2[nH]c(N(C)Cc3ccc(OCCCN(C)C)cc3)nc(=O)c2c(C)c1OC (as salt: HCl) [Example 44, 2-{[4-(3-Dimethylamino-propoxy)-benzyl]-methyl-amino}-6,7-dimethoxy-5-methyl-1H-quinazolin-4-one]",191 to 192.2
5,"COc1cc2[nH]c(N(C)Cc3cccc(S(C)(=O)=O)c3)nc(=O)c2c(C)c1OC [Example 128, 2-[(3-Methanesulfonyl-benzyl)-methyl-amino]-6,7-dimethoxy-5-methyl-1H-quinazolin-4-one]",269.5 to 271.5
6,"COc1cc2[nH]c(N(C)Cc3cccc(C#N)c3)nc(=O)c2c(C)c1OC (as salt: TFA) [Example 96, 3-{[(6,7-Dimethoxy-5-methyl-4-oxo-1,4-dihydro-quinazolin-2-yl)-methyl-amino]-methyl}-benzonitrile]",279.9 to 281.5
7,COc1cc2[nH]c(N(C)Cc3cccc(N(C)CCCO)c3)nc(=O)c2c(OC)c1OC (as salt: HCl) [Example 187],156 to 157.2
8,"COc1cc2[nH]c(N(C)Cc3cccc(CN(C)CCO)c3)nc(=O)c2c(C)c1OC [Example 33, 2-[(3-{[(2-Hydroxy-ethyl)-methyl-amino]-methyl}-benzyl)-methyl-amino]-6,7-dimethoxy-5-methyl-1H-quinazolin-4-one]",123.8 to 125.6

# Continued, values first:
row,melting point [°C],SMILES
1,201.4 to 207.4,"CCN1CCN(c2cccc(CN(C)c3nc(=O)c4c(C)c(OC)c(OC)cc4[nH]3)c2)C1=O [Example 264, 2-{[3-(3-Ethyl-2-oxo-imidazolidin-1-yl)-benzyl]-methyl-amino}-6,7-dimethoxy-5-methyl-1H-quinaozlin-4-one]"
2,230 to 230.5,"COc1cc2[nH]c(N(C)Cc3cccc(N4CCN(C)C4=O)c3)nc(=O)c2c(C)c1OC [Example 262, 6,7-Dimethoxy-5-methyl-2-{methyl-[3-(3-methyl-2-oxo-imidazolidin-1-yl)-benzyl]-amino}-1H-quinazolin-4-one]"
3,199.5 to 202.1,"COCCN1CCN(c2cccc(CN(C)c3nc(=O)c4c(OC)c(OC)c(OC)cc4[nH]3)c2)C1=O [Example 266, 5,6,7-Trimethoxy-2-({3-[3-(2-methoxy-ethyl)-2-oxo-imidazllidin-1-yl]-benzyl}-methyl-amino)-1H-quinazolin-4-one]"
4,207 to 209,"COc1cc2[nH]c(N(C)Cc3cccc(NC4=NCCC4)c3)nc(=O)c2c(OC)c1OC [Example G-43, 2-{[3-(4,5-Dihydro-3H-pyrrol-2-ylamino)-benzyl]-methyl-amino}-5,6,7-trimethoxy-1H-quinazolin-4-one]"
5,185.5 to 187.1,"COc1cc2[nH]c(N(C)Cc3cccc(Nc4cc(C)nc(Cl)n4)c3)nc(=O)c2c(OC)c1OC [Example 218, 2-{[3-(2-Chloro-6-methyl-pyrimidin-4-ylamino)-benzyl]-methyl-amino}-5,6,7-trimethoxy-1H-quinazolin-4-one]"
6,130 to 133,"COc1cc2[nH]c(N(C)Cc3cccc(N4CCNC4=O)c3)nc(=O)c2c(OC)c1OC [Example 261, 5,6,7-Trimethoxy-2-{methyl[3-(2-oxo-imidazolidin-1-yl)-benzyl]-amino}-1H-quinazolin-4-one]"
7,47 to 48.5,"COc1cc2[nH]c(N(C)Cc3cccc(NCCCO)c3)nc(=O)c2c(OC)c1OC [Example G-18, 2-{[3-(3-Hydroxy-propylamino)-benzyl]-methyl-amino}-5,6,7-trimethoxy-1H-quinazolin-4-one]"
8,220 to 223.5,"COc1cc2[nH]c(N(C)Cc3cccc(-n4ccc(C)n4)c3)nc(=O)c2c(C)c1OC [Example 233, 6,7-Dimethoxy-5-methyl-2-{methyl-[3-(3-methyl-pyrazol-1-yl)-benzyl]-amino}-1H-quinazolin-4-one]"
9,166.7 to 168.1,"COCCCN(C)c1cccc(CN(C)c2nc(=O)c3c(OC)c(OC)c(OC)cc3[nH]2)c1 (as salt: HCl) [Example 189, 5,6,7-Trimethoxy-2-({3-[(3-methoxy-propyl)-methyl-amino]-benzyl}-methyl-amino)-1H-quinazolin-4-one]"
10,164.2 to 165.7,"COc1cc2[nH]c(N(C)Cc3cccc(/N=C(\C4CCC4)N(C)C)c3)nc(=O)c2c(OC)c1OC [Example 203, N,N-Dimethyl-N′-(3-{[methyl-(5,6,7-trimethoxy-4-oxo-11,4-dihydro-quinazolin-2-yl)-amino]-methyl}-phenyl)-cyclobutanecarboxamidine]"
11,264.9 to 267,"COc1cc2[nH]c(N(C)Cc3cc(N(C)C4=NCCC4)ccc3F)nc(=O)c2c(O)c1OC [Example 211, 2-({-[(4,5-Dihydro-3H-pyrrol-2-yl)-methyl-amino]-2-fluoro-benzyl}-methylamino)-5-hydroxy-6,7-dimethoxy-1H-quinazolin-4-one]"
